Test results: patent US5075289A, “9-R-azacyclic erythromycin antibiotics” (priority 1988, dated 1991)
In brackets after ≈: the same amount, converted by molar mass. Read-outs that look alike come from different tables or passages of the source.

Experiments:
Assay type in all cases: cell-based
Escherichia coli H560 = test: In vitro antibacterial activity, agar dilution MIC; conditions: E. coli H560, Brain Heart Infusion agar, 20-24 hours, read-out: MIC
Description: (§1) The antimicrobial spectra of a number of compounds of the invention were tested by the following method:
(§2) Twelve petri dishes containing successive aqueous dilutions of the test compound mixed with 10 ml of sterilized Brain Heart Infusion agar (Difco 0418-01-5) are prepared. Each plate is inoculated with 1:100 (or 1:10 for slow growing strains, primarily Micrococcus and Streptococcus) dilutions of up to 32 different microorganisms, using a Steers replicator block The inoculated plates are incubated at 35°-37° C. for 20-24 hours. In addition, a control plate, using BHI agar containing no test compound, is prepared and incubated at the beginning and end of each test.
(§3) An additional plate containing a compound having known susceptibility patterns for the organisms being tested and belonging to the same antibiotic class as the test compound is also prepared and incubated as a further control, as well as to provide test-to-test comparability. Erythromycin A was used for this purpose.
(§4) After incubation, each disk is read. The MIC is defined as the lowest concentration of drug yielding no growth, a slight haze, or sparsely isolated colonies on the inoculum spot as compared to the growth control.

[1] = test system: Staphylococcus aureus ATCC 6538P; test: In vitro antibacterial activity, agar dilution MIC; conditions: ATCC6538P
Description: as §1, §2, §3, §4

[2] = test system: Haemophilus influenzae 588A; test: In vitro antibacterial activity, agar dilution MIC; conditions: H. influenzae 588A
Description: as §1, §2, §3, §4

[3] = test system: Haemophilus influenzae 747C; test: In vitro antibacterial activity, agar dilution MIC; conditions: H. influenzae 747C
Description: as §1, §2, §3, §4

[4] = test system: Micrococcus luteus ATCC 9341; test: In vitro antibacterial activity, agar dilution MIC; conditions: ATCC9341, M. luteus ATCC 9341, Brain Heart Infusion agar, 20-24 hours, read-out: MIC
Description: as §1, §2, §3, §4

[5] = test system: Micrococcus luteus ATCC 4698; test: In vitro antibacterial activity, agar dilution MIC; conditions: ATCC4698, read-out: MIC
Description: as §1, §2, §3, §4

[6] = test system: Haemophilus influenzae 504; test: In vitro antibacterial activity, agar dilution MIC; conditions: H. influenzae 504
Description: as §1, §2, §3, §4

[7] = test system: Haemophilus influenzae 751; test: In vitro antibacterial activity, agar dilution MIC; conditions: H. influenzae 751
Description: as §1, §2, §3, §4

[8] = test system: Haemophilus influenzae 667A; test: In vitro antibacterial activity, agar dilution MIC; conditions: H. influenzae 667A
Description: as §1, §2, §3, §4

[9] = test system: Haemophilus influenzae 519A; test: In vitro antibacterial activity, agar dilution MIC; conditions: H. influenzae 519A
Description: as §1, §2, §3, §4

[10] = test system: Staphylococcus aureus CMX 553; test: In vitro antibacterial activity, agar dilution MIC; conditions: CMX553, S. aureus CMX 553, Brain Heart Infusion agar, 20-24 hours, read-out: MIC
Description: as §1, §2, §3, §4

[11] = test system: Haemophilus influenzae 1435; test: In vitro antibacterial activity, agar dilution MIC; conditions: H. influenzae 1435
Description: as §1, §2, §3, §4

[12] = test system: Enterococcus faecium ATCC 8043; test: In vitro antibacterial activity, agar dilution MIC; conditions: ATCC8043
Description: as §1, §2, §3, §4

Escherichia coli Juhl = test: In vitro antibacterial activity, agar dilution MIC
Description: as §1, §2, §3, §4

[13] = test system: Haemophilus influenzae ATCC 10211; test: In vitro antibacterial activity, agar dilution MIC; conditions: ATCC10211, H. influenzae ATCC 10211
Description: as §1, §2, §3, §4

[14] = test system: Staphylococcus epidermidis 3519; test: In vitro antibacterial activity, agar dilution MIC; conditions: S. epidermidis 3519, Brain Heart Infusion agar, 20-24 hours, read-out: MIC
Description: as §1, §2, §3, §4

[15] = test system: Haemophilus influenzae SPK AMP R; test: In vitro antibacterial activity, agar dilution MIC; conditions: H. influenzae SPK AMP R
Description: as §1, §2, §3, §4

[16] = test system: Haemophilus influenzae 632A; test: In vitro antibacterial activity, agar dilution MIC; conditions: H. influenzae 632A
Description: as §1, §2, §3, §4

[17] = test system: Haemophilus influenzae SOL AMP R; test: In vitro antibacterial activity, agar dilution MIC; conditions: H. influenzae SOL AMP R
Description: as §1, §2, §3, §4

[18] = test system: Haemophilus influenzae ATCC 9795; test: In vitro antibacterial activity, agar dilution MIC; conditions: ATCC9795, H. influenzae ATCC 9795
Description: as §1, §2, §3, §4

Escherichia coli SS = test: In vitro antibacterial activity, agar dilution MIC; conditions: read-out: MIC
Description: as §1, §2, §3, §4

[19] = test system: Haemophilus influenzae 1177; test: In vitro antibacterial activity, agar dilution MIC; conditions: H. influenzae 1177
Description: as §1, §2, §3, §4

[20] = test system: Streptococcus pyogenes EES61; test: In vitro antibacterial activity, agar dilution MIC; conditions: S. pyogenes EES61, Brain Heart Infusion agar, 20-24 hours, read-out: MIC
Description: as §1, §2, §3, §4

Staphylococcus aureus 45 = test: In vitro antibacterial activity, agar dilution MIC; conditions: S. aureus 45, Brain Heart Infusion agar, 20-24 hours, read-out: MIC
Description: as §1, §2, §3, §4

[21] = test system: Haemophilus influenzae DILL AMP R; test: In vitro antibacterial activity, agar dilution MIC; conditions: H. influenzae DILL AMP R
Description: as §1, §2, §3, §4

[22] = test system: Haemophilus influenzae 566A; test: In vitro antibacterial activity, agar dilution MIC; conditions: H. influenzae 566A
Description: as §1, §2, §3, §4

[23] = test system: Staphylococcus aureus NCTC 10649; test: In vitro antibacterial activity, agar dilution MIC; conditions: NCTC10649, S. aureus NCTC 10649, Brain Heart Infusion agar, 20-24 hours, read-out: MIC
Description: as §1, §2, §3, §4

[24] = test system: Haemophilus influenzae 503B; test: In vitro antibacterial activity, agar dilution MIC; conditions: H. influenzae 503B
Description: as §1, §2, §3, §4

[25] = test system: Staphylococcus aureus 642A; test: In vitro antibacterial activity, agar dilution MIC; conditions: S. aureus 642A, Brain Heart Infusion agar, 20-24 hours, read-out: MIC
Description: as §1, §2, §3, §4

[26] = test system: Streptococcus pyogenes 930 CONST; test: In vitro antibacterial activity, agar dilution MIC; conditions: 930CONST
Description: as §1, §2, §3, §4

[27] = test system: Staphylococcus aureus A5177; test: In vitro antibacterial activity, agar dilution MIC; conditions: S. aureus A5177, Brain Heart Infusion agar, 20-24 hours, read-out: MIC
Description: as §1, §2, §3, §4

Escherichia coli DC-2 = test: In vitro antibacterial activity, agar dilution MIC; conditions: DC2
Description: as §1, §2, §3, §4

[28] = test system: Streptococcus pyogenes 2548 INDUC; test: In vitro antibacterial activity, agar dilution MIC
Description: as §1, §2, §3, §4

[29] = test system: Haemophilus influenzae ATCC 19418; test: In vitro antibacterial activity, agar dilution MIC; conditions: ATCC19418, H. influenzae ATCC 19418
Description: as §1, §2, §3, §4

[30] = test system: Streptococcus bovis A5169; test: In vitro antibacterial activity, agar dilution MIC; conditions: read-out: MIC
Description: as §1, §2, §3, §4

[31] = test system: Streptococcus agalactiae CMX 508; test: In vitro antibacterial activity, agar dilution MIC; conditions: CMX508, S. agalactiae CMX 508, Brain Heart Infusion agar, 20-24 hours, read-out: MIC
Description: as §1, §2, §3, §4

[32] = test system: Staphylococcus aureus 45 RAR 2; test: microbe, parasite or virus in culture; conditions: 45RAR2
Description: as §1, §2, §3, §4

Row | Compound | MIC (Escherichia coli H560) | MIC [1] | MIC [2] | MIC [3] | MIC [4] | MIC [5] | MIC [6] | MIC [7] | MIC [8] | MIC [9] | MIC [10] | MIC [11] | MIC [12] | MIC (Escherichia coli Juhl) | MIC [13] | MIC [14] | MIC [15] | MIC [16] | MIC [17] | MIC [18] | also measured
1 | CC[C@H]1OC(=O)[C@H](C)[C@@H](O[C@H]2C[C@@](C)(OC)[C@@H](O)[C@H](C)O2)[C@H](C)[C@@H](O[C@@H]2O[C@H](C)C[C@H](N(C)C)[C@H]2O)[C@](C)(O)C[C@@H](C)[C@@H](N2CCC(C)CC2)[C@H](C)[C@@H](O)[C@]1(C)O [Example 6] | 3.1 µg/mL (≈ 3.79 µM) | 0.39 µg/mL (≈ 0.477 µM) | 1 µg/mL (≈ 1.22 µM) | 1 µg/mL (≈ 1.22 µM) | 0.05 µg/mL (≈ 0.0612 µM) | 0.2 µg/mL (≈ 0.245 µM) | 1 µg/mL (≈ 1.22 µM) | 1 µg/mL (≈ 1.22 µM) | 2 µg/mL (≈ 2.45 µM) | 0.5 µg/mL (≈ 0.612 µM) | 0.39 µg/mL (≈ 0.477 µM) | 1 µg/mL (≈ 1.22 µM) | 0.1 µg/mL (≈ 0.122 µM) | 12.5 µg/mL (≈ 15.3 µM) | 1 µg/mL (≈ 1.22 µM) | 0.39 µg/mL (≈ 0.477 µM) | 1 µg/mL (≈ 1.22 µM) | 1 µg/mL (≈ 1.22 µM) | 1 µg/mL (≈ 1.22 µM) | 1 µg/mL (≈ 1.22 µM) | MIC (Escherichia coli SS): 0.2 µg/mL (≈ 0.245 µM); MIC [19]: 0.25 µg/mL (≈ 0.306 µM); MIC [20]: 0.1 µg/mL (≈ 0.122 µM); MIC (Staphylococcus aureus 45): 0.2 µg/mL (≈ 0.245 µM); MIC [21]: 1 µg/mL (≈ 1.22 µM); MIC [22]: 2 µg/mL (≈ 2.45 µM); MIC [23]: 0.78 µg/mL (≈ 0.955 µM); MIC [24]: 1 µg/mL (≈ 1.22 µM); MIC [25]: 0.39 µg/mL (≈ 0.477 µM); MIC [26]: > 100 µg/mL; MIC [27]: 3.1 µg/mL (≈ 3.79 µM); MIC (Escherichia coli DC-2): 25 µg/mL (≈ 30.6 µM); MIC ([28]; 2548INDUC): 3.1 µg/mL (≈ 3.79 µM); MIC [29]: 2 µg/mL (≈ 2.45 µM); MIC [30]: 0.02 µg/mL (≈ 0.0245 µM); MIC [31]: 0.1 µg/mL (≈ 0.122 µM); MIC [32]: 0.78 µg/mL (≈ 0.955 µM)
2 | CC[C@H]1OC(=O)[C@H](C)[C@@H](O[C@H]2C[C@@](C)(OC)[C@@H](O)[C@H](C)O2)[C@H](C)[C@@H](O[C@@H]2O[C@H](C)C[C@H](N(C)C)[C@H]2O)[C@](C)(O)C[C@@H](C)[C@@H](N2CCC(C)(C)CC2)[C@H](C)[C@@H](O)[C@]1(C)O [Example 7] | 3.1 µg/mL (≈ 3.73 µM) | 0.39 µg/mL (≈ 0.469 µM) | 1 µg/mL (≈ 1.2 µM) | 1 µg/mL (≈ 1.2 µM) | ≤ 0.05 µg/mL | 0.2 µg/mL (≈ 0.241 µM) | 1 µg/mL (≈ 1.2 µM) | 1 µg/mL (≈ 1.2 µM) | 1 µg/mL (≈ 1.2 µM) | 0.5 µg/mL (≈ 0.602 µM) | 0.39 µg/mL (≈ 0.469 µM) | 0.5 µg/mL (≈ 0.602 µM) | 0.1 µg/mL (≈ 0.12 µM) | 12.5 µg/mL (≈ 15 µM) | 1 µg/mL (≈ 1.2 µM) | 0.39 µg/mL (≈ 0.469 µM) | 1 µg/mL (≈ 1.2 µM) | 1 µg/mL (≈ 1.2 µM) | 0.5 µg/mL (≈ 0.602 µM) | 1 µg/mL (≈ 1.2 µM) | MIC (Escherichia coli SS): 0.2 µg/mL (≈ 0.241 µM); MIC [19]: 0.25 µg/mL (≈ 0.301 µM); MIC [20]: 0.1 µg/mL (≈ 0.12 µM); MIC (Staphylococcus aureus 45): 0.2 µg/mL (≈ 0.241 µM); MIC [21]: 1 µg/mL (≈ 1.2 µM); MIC [22]: 2 µg/mL (≈ 2.41 µM); MIC [23]: 0.39 µg/mL (≈ 0.469 µM); MIC [24]: 1 µg/mL (≈ 1.2 µM); MIC [25]: 0.39 µg/mL (≈ 0.469 µM); MIC [26]: > 100 µg/mL; MIC [27]: 3.1 µg/mL (≈ 3.73 µM); MIC (Escherichia coli DC-2): 12.5 µg/mL (≈ 15 µM); MIC ([28]; S. pyogenes 2548 INDUC, Brain Heart Infusion agar, 20-24 hours, read-out: MIC): 6.2 µg/mL (≈ 7.46 µM); MIC [29]: 2 µg/mL (≈ 2.41 µM); MIC ([30]; S. bovis A5169, Brain Heart Infusion agar, 20-24 hours): ≤ 0.05 µg/mL; MIC [31]: ≤ 0.05 µg/mL; MIC [32]: 0.39 µg/mL (≈ 0.469 µM)
